Tested on: rats
Assay: Tail-flick (focal-ray) test on rats
Type: in vivo, rat
Conditions: female Sprague Dawley rats, intravenous, 1.46 mg/kg morphine only, measured 10, 20, 40 and 60 min after application, FIGS. 1 and 2
Text: The analgesic effect of the inventive active substance combinations and the comparative solutions was investigated in the focal-ray (tail-flick) test on rats according to D'Amour and Smith, J. Pharm. Exp. Ther. Vol. 72, pages 74-79, 1941. For this, female Sprague Dawley rats (Janvier, France) weighing between 120 and 150 g were used.
The rats were each placed in a test cage and the base of the tail exposed to the focused radiant heat from an electric lamp (tail-flick type 50/08/1.bc, Labtec, Dr. Hess). The lamp intensity was set so that the time from when the lamp was switched on until the tail was suddenly jerked away (pain latency) was 3 to 5 seconds in untreated rats. Before the application of the inventive active substance combinations and the comparative solutions, the rats were pre-tested twice within five minutes and the mean value of these measurements calculated as the pre-test mean value. The solutions of the inventive active substance combinations and the comparative solutions were then applied intravenously. The pain measurements were performed at 10, 20, 40 and 60 minutes respectively after the intravenous application. The analgesic effect was determined as an increase in the pain latency (% of the maximum possible antinociceptive effect) according to the following formula: […]

CN1CC[C@]23c4c5ccc(O)c4O[C@H]2[C@@H](O)C=C[C@H]3[C@H]1C5 [Comparative Example 1, morphine]
analgesic effect (increase in pain latency, % of the maximum possible antinociceptive effect): good analgesic effect

Source: patent publication US20040116352A1, “Active substance combination containing a compound with an opioid effect and at least one further compound of formula 1” (priority 2000, published 2004)
